Reference: patent publication US8946173B2, “Cancer cell death inducing agent having effects of potentiating anticancer drug against anticancer-drug-resistant cancer” (Momotaro-Gene Inc., priority 2007, dated 2015)

System: MCF7/ADR cells
Assay: Cell survival rate assay with doxorubicin
Type: cell-based, human
Settings: no treatment group (no vector)
Procedure: Cells were seeded in a 96-well flat bottom microplate at 1000 cells per well. After 24 hours of incubation, cells were treated with Ad-LacZ and Ad-REIC at 100 MOI in serum free medium for 2 hours, followed by exchange with fresh complete medium. After 48 hours, floating dead cells were removed by medium exchange. Adhering cells were cultured with doxorubicin at various concentrations for 72 hours. At the end of incubation, cell survival rates were measured using CellTiter96 (trademark) Aqueous One Solution Cell Proliferation Assay (Promega Corp.).

COc1cccc2c1C(=O)c1c(O)c3c(c(O)c1C2=O)C[C@@](O)(C(=O)CO)C[C@@H]3O[C@H]1C[C@H](N)[C@H](O)[C@H](C)O1 [doxorubicin]
cell survival % (10 μM doxorubicin): 88.1%
cell survival rates (25 μM doxorubicin): 45.9%
